Here are results for two molecules from patent publication US10238670B2, “9-aminomethyl minocycline compounds and methods of use thereof in urinary tract infection (UTI) treatment” (Paratek Pharmaceuticals, Inc., priority 2016, dated 2019).

In brackets after ≈: the same amount, converted by molar mass. Several values for one entry are separate records, joined by “and”; a condition that tells them apart may be missing. Equal values may be shown once. Read-outs that look alike come from different tables or passages of the source.

The nature of data set [1]: In vitro plasma protein binding (ultrafiltration), rat plasma. The data set is classed as in vitro ADME, rat (HanWistar). The conditions noted are these: HanWistar, 10-10,000 ng/mL, mean±SD, read-out: mean unbound protein fraction (fu) in plasma. As to the method:
(§1) For human binding studies, plasma was obtained from the blood of three healthy male volunteers. Plasma was defrosted from storage at -20° C. before use, and pools of human plasma were used for all studies. Plasma from mouse, rat, and monkey was supplied by Harlan Laboratories Ltd. (Netherlands), Milan […], Switzerland) and Centre de Primatologie ULP (France), respectively. Protein binding was measured using an ultrafiltration method. To asses the suitability of ultrafiltration, the recovery and free permeation of [^14C]-labelled Compound 1 in PBS buffer were investigated. […] Three 1 mL aliquots per concentration were introduced into […]® devices and spun for 1 min at 2000 g (filtrate ≤500 μL). Samples of the spiked solutions, the filtrate and retentate were quantified by LSC; volumes were determined by weighing. The free permeation of the test compound in PBS was evaluated as follows: Ratio=[Cuf/Cr] with Cuf being the concentration in the ultrafiltrate (ng/mL) and Cr the concentration in the retentate (ng/mL). […] Specifically, concentrations of Compound 1 was determined by an UPLC-MS/MS method. […] The ions monitored for Compound 1 was the parent [M+H]^+ ion at m/z 557.3.0; the product ions at m/z 453.4. […] The quantification was performed using Analyst software and Watson LIMS version 7.2.0.01. […] The lower limit of quantitation was 5.0 ng/mL for Compound 1.

Data set [2] concerns plasma proteins. The data set is described as above. The data set is classed as in vitro ADME, rat (HanWistar). The conditions noted are these: 10-10,000 ng/mL. Here is the method: as §1
Data set [3] is described as follows: In vitro plasma protein binding (ultrafiltration), human plasma. The data set is classed as in vitro ADME. The following applies: male; human plasma; 10-10,000 ng/mL; mean±SD; read-out: mean unbound protein fraction (fu) in plasma. Here is the method:
(§2) For human binding studies, plasma was obtained from the blood of three healthy male volunteers. Plasma was defrosted from storage at -20° C. before use, and pools of human plasma were used for all studies. Plasma from mouse, rat, and monkey was supplied by Harlan Laboratories Ltd. (Netherlands), Milan […], Switzerland) and Centre de Primatologie ULP (France), respectively. Protein binding was measured using an ultrafiltration method. To asses the suitability of ultrafiltration, the recovery and free permeation of [^14C]-labelled Compound 1 in PBS buffer were investigated. […] Three 1 mL aliquots per concentration were introduced into […]® devices and spun for 1 min at 2000 g (filtrate ≤500 μL). Samples of the spiked solutions, the filtrate and retentate were quantified by LSC; volumes were determined by weighing. The free permeation of the test compound in PBS was evaluated as follows: Ratio=[Cuf/Cr] with Cuf being the concentration in the ultrafiltrate (ng/mL) and Cr the concentration in the retentate (ng/mL). […] Specifically, concentrations of Compound 1 was determined by an UPLC-MS/MS method. […] Standards and quality control samples were prepared on the day of analysis by adding a 20 μL aliquot of an appropriate standard or QC spiking solution in methanol. A 25 μL aliquot of the internal standard (at 200 ng/mL in methanol) was added to each well except blanks. […] Samples were processed using protein precipitation. A 0.5 mL aliquot of an acetonitrile/ethanol/acetic acid mixture (90:10:0.1, v:v:v) was added to each sample; samples were mixed using a vortex mixer for 10 minutes, and centrifuged 3800 rpm (approximately 2500×g) for 10 min at 10° C. A 500 μL aliquot of the supernatant transferred to a clean 96 well plate, 2 ml. An aliquot 500 μL of 80:20 (water:acetonitrile) was added to all the samples. Samples were mixed by vortexing for 0.5 min. A 6 μL sample volume was injected into the UPLC/MS/MS system for analysis. Samples were then assayed on an UPLC-MS/MS system, consisting of an Acquity UPLC with a quaternary pump, a ample manager, and sample organizer, coupled to a Sciex API4000 mass spectrometer running Analyst software version 1.4.2 (Foster City, Calif., USA). The mass spectrometer was operated in the positive ion mode, using electro spray ionization, with a source temperature of 500° C. Chromatographic separation was carried out on an Acquity BEH C18, 50×2.1, 1.7 particle (Waters, Mass.) at a flow rate of 1.0 mL/min. The column temperature was maintained at 65° C. […] The ions monitored for Compound 1 was the parent [M+H]^+ ion at m/z 557.3.0; the product ions at m/z 453.4. Data processing: Calibration curves (y=x^2+xb+c or y=ax+b), represented by the plots of the respective peak area ratios (y) of the analyte […] versus the concentrations (x) of the calibration samples, were generated using weighted (1/x^2 or 1/x) quadratic least-squares regression as the mathematical model. The quantification was performed using Analyst software and Watson LIMS version 7.2.0.01. Concentrations in QC and study samples were calculated from the resulting peak area ratios and interpolation from the regression equations of the respective calibration curves. The lower limit of quantitation was 5.0 ng/mL for Compound 1.

Data set [4] deals with plasma proteins. The description is as above. Format: in vitro ADME. As to the method: as §2
Data set [5] is described as follows: Pharmacokinetics of Compound 1 in mouse plasma versus kidney. Format: in vivo.
Data set [6] deals with K. pneumoniae FQR. Nature of the data set: In vitro MIC, 2010 surveillance isolates. Format: cell-based, Klebsiella pneumoniae. The following applies: N=412.
The test system of data set [7] is Ind+ Proteus spp. Nature of the data set: In vitro MIC, 2010 surveillance isolates. Format: cell-based. The conditions noted are these: N=258.
In data set [8] the test system is E. coli (ATCC 25922). Nature of the data set: Broth microdilution MIC against planktonic E. coli. The data set is classed as cell-based. The conditions noted are these: Escherichia coli, ATCC25922, extrapolated from OD650 plot after 24 hours, read-out: minimum inhibitory concentration (MIC). Here is the method: Antimicrobial activity of Compound 1 against E. coli (ATCC 25922) was determined using a standard broth microdilution method (CLSI in Methods for Dilution Antimicrobial Susceptibility Tests for Bacteria That Grow Aerobically, Approved Standard M7-A8, Clinical and Laboratory Standards Institute, Wayne, Pa. (USA), 2011, incorporated herein by reference) with slight modifications.

Data set [9] in a line: 14C-Compound 1 excretion and kidney/blood distribution in rats. Format: in vivo, rat.
The conditions of data set [10]: cited from earlier work.
For data set [11], the system named is E. coli (ATCC 25922). The conditions noted are these: Macone 2014; cited from earlier work.
For data set [12], the system named is human plasma protein. The conditions noted are these: cited from earlier work.

Regarding `CN(C)c1cc(CNCC(C)(C)C)c(O)c2c1C[C@H]1C[C@H]3[C@H](N(C)C)C(O)=C(C(N)=O)C(=O)[C@@]3(O)C(O)=C1C2=O` [Compound 1, 9-[(2,2-dimethyl-propylamino)-methyl]-minocycline], the fraction unbound in data set [1] is 0.739 ± 0.121; in data set [3], 0.787 ± 0.0972; in [4] (male, human, plasma, Mean over concentrations), 0.787. Further, the “Mean (SD) Bound Fraction” value in [2] was 26.1 (12.3) %; in data set [4] (human plasma, 10-10,000 ng/mL), 21% and 21.3 (9.72) %. Also, in data set [4] (human plasma, 10-10,000 ng/mL), the “concentration dependency of plasma protein binding” value is “not concentration dependent”. Besides, in data set [4] (human plasma, 10-10,000 ng/mL, mean±SD), the “mean unbound protein fraction (fu) in plasma” value is 78.7±9.7%. This molecule had a fraction unbound at 100 ng/mL in data set [4] (male, human, plasma, Concentration 100 ng/mL) of 0.656. In [4] (male, human, plasma, Concentration 1,000 ng/mL), this molecule gave a fraction unbound at 1000 ng/mL of 0.878. The same molecule showed a fraction unbound at 10000 ng/mL in data set [4] (male, human, plasma, Concentration 10,000 ng/mL) of 0.798. The Kp in [5] (kidney/plasma, sc, Subcutaneous, 4.0 mg/kg, read-out: AUC Ratio Kidney:Plasma) was 4.2; in data set [5] (tissues including kidney, relative to plasma, subcutaneous, 4 mg/kg, species not printed at b200, read-out: concentrations in tissues including the kidneys relative to plasma) it was about 4. Moreover, the AUC(0-inf) in data set [5] (plasma, sc, Subcutaneous, 4.0 mg/kg) stood at 2820 ng·h/mL. The “Cumulative % Inhibition at MIC” value in data set [6] (MIC 1 μg/ml) was 15.3%; in [6] (MIC 2 μg/ml), 48.8%; in data set [6] (MIC 4 μg/ml), 72.6%; in [6] (MIC 8 μg/ml), 86.7%; in data set [6] (MIC 16 μg/ml), 92.7%; in data set [6] (MIC ≤0.5 μg/ml, listed as head image P00012), 1.2%. Besides, the “Cumulative % Inhibition at MIC” value in data set [6] (MIC ≥32 μg/ml) turned out to be 100%; in data set [7] (MIC 1 μg/ml) it was 0.8%; in data set [7] (MIC 2 μg/ml), 3.1%; in data set [7] (MIC 4 μg/ml) it was 26.0%; in data set [7] (MIC 8 μg/ml), 58.1%; in data set [7] (MIC 16 μg/ml), 73.3%. Further, the results for the “Cumulative % Inhibition at MIC” value in data set [7] (MIC ≤0.5 μg/ml) and in data set [7] (MIC ≥32 μg/ml) were 0% and 100%, respectively. Further, the MIC in data set [8] was 1.13 µg/mL (≈ 2.03 µM). Further, the “concentration of radioactivity, kidney pelvis” value in data set [9] (IV, 5 minutes post dose) is 11,300 ng/g. For the same molecule, the “concentration of radioactivity, blood” value in data set [9] (IV, 24 hrs post dose) amounted to 57.6 ng/mL. Moreover, the “AUCinf, blood” value in data set [9] (oral dosing) came out at 3030 ng·h/mL. Besides, in data set [9] (oral dosing), the “AUCinf, kidney cortex” value was 11,000 ng*h/ml. For the same molecule, the “AUCinf, kidney medulla” value in [9] (oral dosing) is 10,900 ng*h/ml. In [9] (oral dosing), the “AUCinf, kidney pelvis” value was 10,500 ng*h/ml. For the same molecule, the “Cmax, blood” value in [9] (oral dosing) came out at 125 ng/mL. Moreover, in data set [9] (oral dosing), the “Cmax, kidney cortex” value was determined as 721 ng/g. Also, the “Cmax, kidney medulla” value in data set [9] (oral dosing) was 722 ng/g. In addition, the “Cmax, kidney pelvis” value in data set [9] (oral dosing) came to 1580 ng/g. Also, the peak plasma concentration is 1.8 mg/L in [10] (100 mg IV dose) and 0.6 mg/L in [10] (300 mg oral dose). In addition, the elimination half-life entry in data set [10] (phase 1 studies) is listed as “approximately 17 hours”. Besides, the “reported MIC against E. coli” value in data set [11] is 0.5 to 2 µg/mL.
Regarding `CN(C)c1cc(NC(=O)CNC(C)(C)C)c(O)c2c1C[C@H]1C[C@H]3[C@H](N(C)C)C(O)=C(C(N)=O)C(=O)[C@@]3(O)C(O)=C1C2=O` [Tigecycline], the “type of plasma protein binding” value in data set [12] (binding increases with increasing drug concentrations) was “atypical, non-linear protein binding”. Besides, the “human plasma protein binding, Mean” value in data set [12] (literature) was 71-87%.
